Test results: ChEMBL document CHEMBL1133580, “Successful virtual screening of a chemical database for farnesyltransferase inhibitor leads” (J Med Chem, 2000)
Activity calls are given as the source filed them. The calls are words filed in the database; no cut-off is given here.

Key:
Type in all cases: protein-complex assay
[1] = target: T1, Protein farnesyltransferase (Rattus norvegicus) (UniProt Q04631+Q02293); experiment: In vitro inhibition of farnesyl transferase (FT) by using FT [3H]-SPA kit; IA is inactive
[2] = target: T1, Protein farnesyltransferase (Rattus norvegicus); experiment: In vitro inhibition of farnesyl transferase (FT) by using FT [3H]-SPA kit at the dose of 100 uM
[3] = target: T1, Protein farnesyltransferase (Rattus norvegicus); experiment: In vitro inhibition of farnesyl transferase (FT) by using FT [3H]-SPA kit at the dose of 500 uM
[4] = target: Protein farnesyltransferase (Rattus norvegicus, UniProt Q02293+Q04631); experiment: In vitro inhibition of Farnesyltransferase (FT) by using FT [3H]-SPA kit.

Row | inhibition [1] | inhibition [2] [%] | Structure (SMILES) | further results
1 | inactive |  | CSc1nc(N/C=C(\C#N)S(=O)(=O)c2ccccc2Cl)nc(N(C)C)n1 | 
2 |  | 41.1 | O=C(OCC(F)(F)C(F)(F)C(F)(F)C(F)(F)F)c1cc([N+](=O)[O-])cc2c1-c1c(cc([N+](=O)[O-])cc1[N+](=O)[O-])C2=O | 
3 |  |  | COc1cccc(C2Nc3ccccc3CN2NS(=O)(=O)c2ccc(C)cc2)c1O (stereo not drawn) | inhibition [3]: 16.8%
4 | inactive |  | Cc1cc(-c2nc(-c3ccc(C(F)(F)F)cc3)no2)n(C)n1 | 
5 | inactive |  | N=C(NOC(=O)Nc1ccc(Cl)cc1)c1ccc(OCc2ncc(C(F)(F)F)cc2Cl)cc1 | 
6 |  | 32.2 | CCCCCCn1c(N)c(C#N)c2ccc([N+](=O)[O-])cc2c1=O | 
7 |  |  | CCN(CC#N)c1ccc(/C=N/c2ccc(SC)cc2)cc1 | inhibition [3]: 15.8%
8 | inactive |  | O=C(Cc1c(Cl)cc(Cl)cc1Cl)C(=O)Oc1c(Cl)cc(Cl)cc1Cl | 
9 |  |  | CN(C)c1ccc(C(=O)N/N=C/c2ccccc2[N+](=O)[O-])cc1 | inhibition [3]: 28.3%
10 | inactive |  | Clc1ccc(-c2cc(-c3csc(N/N=C/c4ccccc4)n3)on2)c(Cl)c1 | 
11 |  | 19.7 | O=C(Oc1cc(S(=O)(=O)c2ccccc2)ccc1[N+](=O)[O-])c1cccnc1Cl | 
12 | inactive |  | CC(C)C(NC(=O)OCc1ccccc1)C(=O)NC(C)(C)C (stereo not drawn) | 
13 |  | 24.5 | CC(=O)c1cc(C(=O)c2ccc(F)cc2)n2cnc3cc(F)ccc3c12 | 
14 |  |  | Cc1ccc(S(=O)(=O)NC2(Nc3cccc(C)c3)C(Cl)=C(Cl)C(=O)C(Cl)(Cl)C2(Cl)Cl)cc1 (stereo not drawn) | inhibition [3]: 24.9%
15 |  | 39.2 | O=C1NC(=S)S/C1=C\c1ccccc1I | 
16 | inactive |  | O=C1c2cccc([N+](=O)[O-])c2C(=O)N1c1ccc(S(=O)(=O)c2ccc(N3C(=O)c4cccc([N+](=O)[O-])c4C3=O)cc2)cc1 | 
17 |  |  | NC(=O)c1cc2c(c([N+](=O)[O-])c1)-c1c(cc(C(N)=O)cc1[N+](=O)[O-])C2=O | inhibition [3]: 27.3%
18 | inactive |  | O=C(N/N=C/c1ccccc1O)N(c1ccccc1)c1ccccc1 | 
19 |  |  | Cc1c(/N=C/N(C(=O)c2ccccc2)c2cccc([N+](=O)[O-])c2C)cccc1[N+](=O)[O-] | inhibition [3]: 17%

Row | inhibition [1] | inhibition [2] [%] | Structure (SMILES) | further results
20 |  |  | O=C1c2cc([N+](=O)[O-])cc(C(=O)N3CCCCC3)c2-c2c1cc([N+](=O)[O-])cc2[N+](=O)[O-] | IC50 [4]: 96 µM
21 |  |  | Nc1c(C(=O)Nc2ccccc2)sc2nc3c(c(-c4cccnc4)c12)CCC3 | inhibition [3]: 23.9%
22 |  | 27.8 | COc1cc(C(c2c(O)oc3ccccc3c2=O)c2c(O)oc3ccccc3c2=O)cc(OC)c1OC | 
23 |  |  | O=[N+]([O-])c1cc(C(F)(F)F)cc([N+](=O)[O-])c1Oc1ccc(S(=O)(=O)N2CCOCC2)cc1 | inhibition [3]: 50.8%
24 | inactive |  | COc1ccccc1/N=C(\S)NC1CCCCCCCCCCC1 | 
25 |  | 16.8 | Cc1ccc(S(=O)(=O)N(C)c2ccc(Cl)cc2C2=NCC(C)(C)c3ccccc32)cc1 | 
26 |  |  | CCN(CC)c1cccc(OC(=O)Nc2cccc(C(F)(F)F)c2)c1 | inhibition [3]: 21.2%
27 | inactive |  | O=[N+]([O-])c1ccc(-c2csc(-c3ccc(Cl)cc3)n2)cc1CS(=O)(=O)c1ccc(Cl)cc1 | 
28 |  | 43.9 | O=[N+]([O-])c1ccc(C2CC(c3cccnc3)=NN2c2ccccc2)cc1 (stereo not drawn) | 
29 |  | 26.4 | O=C(Nc1ccc(F)cc1[N+](=O)[O-])Oc1ccc2cc(Br)ccc2c1 | 
30 | inactive |  | COc1cccc(NS(=O)(=O)c2ccc(-c3ccc(S(=O)(=O)Nc4cccc(OC)c4)s3)s2)c1 | 
31 | inactive |  | O=C(NC(=O)C(c1ccc(Cl)cc1)c1ncc(C(F)(F)F)cc1Cl)Nc1ccc(Cl)cc1 (stereo not drawn) | 
32 |  | 30 | COc1ccc(C=C(C(=O)c2ccccc2)C(=O)c2ccccc2)cc1 | 
33 |  | 41.6 | Cc1ccc(S(=O)(=O)C(Cl)(Cl)S(=O)(=O)c2ccc(C)cc2)cc1 | 
34 |  | 23.8 | O=C(Cc1cccc2ccccc12)NC(NC(=S)N1CCOCC1)C(Cl)(Cl)Cl (stereo not drawn) | 
35 | inactive |  | COc1ccc(CCN2C(=O)CS/C2=N\c2c(C)cccc2C)cc1OC | 
36 |  |  | CC(=O)OCC(COC(C)=O)(CN1C(=O)c2ccccc2C1=O)CN1C(=O)c2ccccc2C1=O | inhibition [3]: 60.2%
37 | inactive |  | Cc1cc(C)c(S(=O)(=O)Cc2ccccc2)c(OC(C)C)n1 | 
38 | inactive |  | Cc1c(-c2ccnc(SCc3ccccc3)n2)sc2ccc(Cl)cc12 | 
